The values below come from article PMC11738990, “A small-molecule TNIK inhibitor targets fibrosis in preclinical and clinical models” (Nature Biotechnology, 2024).

One series concerns NHDF cells. The series can be described thus: α-SMA evaluation in NHDF. The class given is cell-based, human. To be noted: TGF-β 0.1 ng/ml, 72 h; read-out: IC50, α-SMA expression.
The test system of series [1] is primary bronchial epithelial cells from healthy donors. The experiment in a line: EMT by FN1, high-content analysis. To be noted: three healthy individuals. The class given is cell-based, human. As for the experimental part: For the measurement of EMT by FN1, on the first day, human primary bronchial epithelial cells were seeded. After 2 d, the medium of the cells was refreshed. […] After 1 h, all cells were treated with 5 ng ml^−1 TGF-β1. On the ninth day (72 h after triggering), cells were fixed with 4% formaldehyde, stained for FN1 and with DAPI and then imaged and quantified via HCA (IN Cell Analyzer 2200, GE Healthcare).
Segmentation and quantification of α-SMA and FN1 immunoreactivity was carried out with an HCA algorithm, with density × area (D × A) output. Data normalization of raw α-SMA or FN1 (D × A) to percent inhibition values was performed on a plate-to-plate basis.
[…]
μp is the average α-SMA or FN1 value of the positive control (TGF-β1 + 1 μM SB525334). μn is the average α-SMA or FN1 value of the vehicle control (TGF-β1 + 0.1% DMSO). Xi is the compound α-SMA or FN1 value. IC50 values for all compounds (if calculable, based on the point of inflection) were calculated with GraphPad Prism using non-linear fit of log (inhibitor) versus response (four parameter).
DAPI fluorescence was applied for HCA-based quantification of the number of imaged cells on a plate-to-plate basis.
Percent remaining cells = (Xi/μn) × 100%
μn is the average number of nuclei of the vehicle control (TGF-β1 + 0.1% DMSO). Xi is the compound number of nuclei.

In the next series the test system is HK-2 cells. The series can be described thus: TGF-β-induced α-SMA expression, western blot. The class given is cell-based, human. As for the experimental part: INS018-055 stock was diluted to eight concentrations in a threefold dilution with DMSO from the final highest concentration at 10 μM. A total of 3.0 × 10^5 HK-2 cells per well were seeded into a six-well plate containing 2.0 ml culture medium at a density of 3.0 × 10^5 cells per well. The cells were cultured overnight at 37 °C. The next day, the complete medium was replaced with K-SFM medium supplemented with 0.025 mg ml^−1 bovine pituitary extract, 2.5 ng ml^−1 EGF and 1% penicillin–streptomycin for starvation. After 24 h of incubation, HK-2 cells were treated with compounds (eight concentrations, threefold dilution) for 30 min before being stimulated with 8 ng ml^−1 TGF-β for an additional 48 h. TGF-β induction was used as the maximum induction positive control. The final DMSO concentration in the assay was 0.1%. Cells were cultured for 48 h at 37 °C. The culture medium was discarded at the end of induction. Cells were washed once using ice-cold DPBS. RIPA buffer was added to lyse the cells for 20 min. Cells were collected, and the supernatant was stored at −80 °C. The total amount of protein in the lysate was determined using the BCA Protein Assay Kit.
For whole-cell lysates, cells were collected and lysed on ice for 20 min with RIPA buffer with protease and phosphatase inhibitors (cOmplete and PhosSTOP, Roche). The protein concentration of the cell lysates was determined using the BCA Protein Assay Kit. After denaturation, whole-cell lysates and cytoplasm and nuclear extraction fractions were loaded onto 4–12% gradient Bis-Tris gels (15 wells) and 4–20% Tris-glycine gels (26 wells), respectively. For western blot detection of target proteins, 15 μg of whole-cell lysates, 5–10 μg of the cytoplasm fraction, 1–2 μg of nuclear matrix and 2–4 μg of the chromatin fraction were loaded into each lane. For western blot detection of histone 3, 0.4–1 μg of the chromatin fraction was loaded. The gels were run for 0.5 h at 80 V before being run at 120 V for another 1 h. When electrophoresis was completed, the gels containing target proteins were transferred onto NC membrane using the iBlot 2 Gel Transfer Device for 13 min at 20 V. All membranes were blocked with 5% BSA in TBST buffer at room temperature for 1 h and then incubated with primary antibodies specific to the indicated targets in TBST buffer containing 5% BSA at 4 °C overnight. After the primary antibody, membranes were washed three times with TBST buffer before incubation with HRP-conjugated secondary antibodies at room temperature for 1 h. Membranes were stripped with Restore Western Blot Stripping Buffer (Thermo Fisher) for GAPDH reference protein detection after exposure for the target proteins. Images of blots were acquired using Image Quant LAS 4000. Integrated intensity of bands from 16-bit blot images was used for quantitation with the software Image Studio Lite. Protein-quantification data of two independent experiments were calculated and analyzed using GraphPad.
(In western blotting, separated proteins are transferred to a membrane and probed.)

The next series deals with healthy subjects. The experiment in a line: Phase I New Zealand safety (NCT05154240). The following applies: n (%) [E].
The test system of another series is C57BL/6 mice. The experiment in a line: Unilateral ureteral obstruction (UUO) kidney fibrosis model.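 As to all read-outs here: mice had the left ureter ligated on day 0, received treatment from day 0 through day 14 and were killed on day 14 for kidney analysis.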 To be noted: for Positive area (%), per mouse: Fig 5B-D Individual Values.
For the next series, the system named is MRC-5 cells. The experiment in a line: TGF-β-induced α-SMA protein expression, western blot. In kind it is cell-based, human. The following applies: TGF-β1 2 ng/ml, 72 h; read-out: IC50, TGF-β-induced α-SMA/GAPDH. As for the experimental part:
MRC-5 cells were cultured in a monolayer with DMEM high-glucose medium supplemented with 10% FBS at 37 °C with 5% CO2. Cells were seeded in six-well plates in three replicate wells per condition at a density of 2.5 × 10^5 cells per well and cultured for 24 h. […] Vehicle (2% FBS–DMEM, containing 0.1% DMSO) was added into the blank control group and the model group, and pre-incubation was continued for 2 h. Next, TGF-β1 was added into each well of the administration group and the model group (final concentration in each well was 2 ng ml^−1), and the same volume of vehicle was added into each well of the blank control group for 72 h of incubation (the culture medium was changed once after 48 h of incubation). After incubation, the cells were collected and digested with 0.5% trypsin, protein was extracted and total protein content was determined by the BCA method.
For whole-cell lysates, cells were collected and lysed on ice for 20 min with RIPA buffer with protease and phosphatase inhibitors (cOmplete and PhosSTOP, Roche). The protein concentration of the cell lysates was determined using the BCA Protein Assay Kit. […] Integrated intensity of bands from 16-bit blot images was used for quantitation with the software Image Studio Lite. Protein-quantification data of two independent experiments were calculated and analyzed using GraphPad.

The mark [2] stands for this setting: INS018_055 3 mg/kg BID, individual animals, Fig 5C-D, 3 mg/kg.
Setting [3] is: INS018_055 10 mg/kg BID, individual animals, Fig 5C-D, 10 mg/kg.
The mark [4] stands for this setting: INS018_055 30 mg/kg BID, individual animals, Fig 5C-D, 30 mg/kg.

“And” between values parts separate entries of the source, which are not always exact repeats. Equal entries are not always repeated.

Experimental for C57BL/6 mice: The surgery took place on two separate days. Mice were divided into two slots based on their body weight before the day of the surgery. On day 0 (day of surgery), UUO surgery was performed after administration of three types of mixed anesthetic agents (medetomidine, midazolam, butorphanol). Mice were shaved at the incision site, the abdomen was cut open, and the left ureter was exteriorized and ligated with 4-0 silk sutures at two points. Finally, the peritoneum and the skin were closed with sutures.
Treatments were applied from day 0 to day 14. And animals were killed on day 14, and blood and tissue samples were collected.
Frozen kidney samples were processed by an alkaline acid hydrolysis method as follows. […] Next, AC buffer (2.2 M acetic acid and 0.48 M citric acid, 400 μl) was added to the samples, followed by centrifugation to collect the supernatant. […] The samples were then mixed with Ehrlich’s solution (400 μl) and heated at 65 °C for 20 min to develop color. After samples were cooled on ice and centrifuged to remove precipitates, the optical density of each supernatant was measured at 560 nm. Hydroxyproline concentrations were calculated from the hydroxyproline standard curve. Kidney hydroxyproline contents were expressed as μg per mg protein, and the amount of protein was determined using the BCA Protein Assay Kit (Thermo Fisher Scientific).
At the end of the UUO study, the left kidney was fixed in Bouin’s solution and embedded in paraffin. Kidney sections were stained using picro-Sirius red solution (Waldeck). To quantify the interstitial fibrosis area, brightfield images in the corticomedullary region were captured using a digital camera (DFC295) at 200-fold magnification, and the positive areas in five fields per section were measured using ImageJ software (National Institute of Health).
Paraffin sections were deparaffinized and hydrophilized with xylene, 100–70% alcohol series and RO water, and then circles were drawn around the kidney sections. […] After washing with PBS, kidney sections were treated with PBS with Tween-20 (PBST), followed by incubation with Block Ace (DS Pharma Biomedical) at room temperature for 10 min. The sections were incubated with the primary antibody (anti-collagen I) at 4 °C overnight. After washing with PBS, kidney sections were treated with PBST, followed by incubation with secondary antibody at room temperature for 30 min. After washing with PBS, kidney sections were fixed with 1% glutaraldehyde solution at room temperature for 1 min. After washing with RO water, kidney sections were treated with PBST and then colored using a chromogenic substrate (Simple Stain DAB, Nichirei Bioscience). After washing with RO water, kidney sections were immersed in an eightfold-diluted hematoxylin solution for 1 min and washed with RO water immediately. […] For scoring of IHC analyses, brightfield images were captured using a digital camera (DFC295) at 200-fold magnification, and the score in one field per section was determined.
Experimental for NHDF cells: The medium was then replaced with an assay medium containing or lacking (control conditions) the test compound, and TGF-β (0.1 ng ml^−1) was added or not (unstimulated control). […] All experimental conditions were performed in five replicates. For in situ immunolabeling and image analysis, at the end of the incubation, fibroblasts were rinsed, fixed and permeabilized. […] Image acquisition was performed using a high-resolution imaging system, the IN Cell Analyzer 2200 (GE Healthcare) automated microscope (objective lens, ×20). Five pictures per well were taken. Labeling was quantified by measuring the fluorescence intensity of α-SMA signals normalized to the total number of nuclei identified (integration of numerical data was performed with the Developer Toolbox 1.5, GE Healthcare software).

As to `CC(C)n1cnc(-c2ccc(F)cc2)c1-c1nc(C(=O)Nc2ccc(N3CCN(C)CC3)cc2)c[nH]1` [INS018_055, 2-[4-(4-fluorophenyl)-1-(prop-2-yl)imidazol-5-yl]-N-[4-(4-methylhexahydropyrazin-1-yl)phenyl]-1H-imidazole-4-carboxamide], the IC50 was 25 nM with NHDF cells; 63 nM (2×) and 500 nM in series [1]; 104 nM with HK-2 cells (TGF-β 8 ng/ml, 48 h, single experiment, read-out: IC50 for α-SMA inhibition); 27.1 nM with MRC-5 cells. Moreover, the “a-SMA normalized by GAPDH” value in the series on HK-2 cells (0.004572 uM) was 2.139; in the series with HK-2 cells (0.0411523 uM) it was 1.835; in the series on HK-2 cells (0.123457 uM), 1.612; in the series with HK-2 cells (0.37037 uM), 1.401; with HK-2 cells (3.33333 uM) it was 1.182; in the series on HK-2 cells (10 uM), 1.23. For the same compound, the “Any Death” value with healthy subjects (MAD any dose N=18) and in the series with healthy subjects (SAD any dose N=30) was 0 [0] throughout. Moreover, the “Fibrosis area (sirius red positive area)” value is 2.24 and 2.26 and 1.61 and 1.34 and 1.14 and 1.04 with C57BL/6 mice (setting [2]); 0.48 and 0.7 and 0.89 and 0.94 and 0.99 and 0.64 and 0.93 and 1.12 with C57BL/6 mice (setting [3]); 0.44 and 0.53 and 0.81 and 0.2 and 0.68 and 0.43 and 0.38 and 0.73 in the series with C57BL/6 mice (setting [4]). Further, the Kidney hydroxyproline in the series on C57BL/6 mice (setting [2]) is 6.42 and 7.24 and 6.97 and 8.63 and 7.89 and 3.86 and 2.76 and 8.85; in the series with C57BL/6 mice (setting [3]), 4.39 and 2.86 and 3.32 and 6 and 3.14 and 6.84 and 3.33 and 3; with C57BL/6 mice (setting [4]), 2.37 and 2.39 and 2.44 and 2.78 and 2.29 and 3.08 and 2.31. In addition, the “Collagen Type 1 score” value with C57BL/6 mice (setting [4]) was 2. In addition, the “Positive area (%), per mouse” value with C57BL/6 mice (INS018_055 high dose group, value per mouse (501-508) over 5 photos) is 0.43% and 0.38% and 0.73% and 0.44% and 0.53% and 0.81% and 0.20% and 0.68%; in the series on C57BL/6 mice (INS018_055 low dose group, value per mouse (301-308) over 5 photos), 1.34% and 1.14% and 1.04% and 2.24% and 2.26% and 1.61%; in the series on C57BL/6 mice (INS018_055 middle dose group, value per mouse (401-408) over 5 photos), 0.94% and 0.99% and 0.64% and 0.93% and 1.12% and 0.48% and 0.70% and 0.89%.
